Assay results published in patent publication US7973069B2 (PTC Therapeutics, Inc., priority 2004, dated 2011).

SMILES | melting point [°C]
C[C@@H](OC(=O)Nc1ccc(-c2c(C#N)c3ccc(Oc4ncccn4)cc3n2C2CC2)cc1)C1CC1 [Compound 2217, (R)-{4-[3-cyano-1-cyclopropyl-6-(pyrimidin-2-yloxy)-1H-indol-2-yl]-phenyl}-carbamic acid 1-cyclopropylethyl ester] | 154 to 156
CC(C)Nc1ccc(-c2c(C#N)c3ccc(Oc4ncccn4)cc3n2C2CC2)cc1 [Compound 2434, 1-cyclopropyl-2-(4-isopropylamino-phenyl)-6-(pyrimidin-2-yloxy)-1H-indole-3-carbonitrile] | 215 to 217
CCCS(=O)(=O)Nc1ccc(-c2c(C#N)c3ccc(OC(F)F)cc3n2CC)cc1 [Compound 928, Propane-1-sulfonic acid [4-(3-cyano-6-difluoromethoxy-1-ethyl-1H-indoel-2-yl)-phenyl]-amide] | 206 to 208
C[C@@H](OC(=O)Nc1ccc(-c2c(C#N)c3ccc(-c4ncccn4)cc3n2C2CCC2)cc1)C1CC1 [Compound 2419, [4-(3-cyano-1-cyclobutyl-6-pyrimidin-2-yl-1H-indol-2-yl)-phenyl]-carbamic acid 1-cyclopropyl-ethyl ester] | 212 to 214
